Measured values from patent publication US9238658B2, “Substituted piperidinyl-carboxamide derivatives useful as SCD 1 inhibitors” (Janssen Pharmaceutica NV, priority 2011, dated 2016).
“And” between values parts separate entries of the source, which are not always exact repeats. Equal entries are not always repeated.

Columns and labels:
SCD1 [1] = biological target: SCD1 (Homo sapiens (Human), UniProt O00767); assay: SCD1 13C-palmitic acid assay in A431 cells; assay type: cell-based; details: read-out: A431 cells 13C-PA IC50
Protocol: Human epithelial carcinoma A431 cells were seeded at 100,000 cells/well in complete growth medium (DMEM, Cellgro #10-013-CM, 4.5 g/L glucose, 10% FBS) in the presence of 0.05 mg/mL human insulin (Hannas Pharmaceutical Supply Co Inc, Humanlin 100 U/ml, 4 mg/ml) in 96-well tissue culture plate. […] The cells were then returned to the tissue culture incubator (37° C. and 5% CO2) for 4 hrs. At the end of incubation, the cells were washed three times with 200 μL/well Hanks buffer (HBSS) and then stored at −20° C. until extraction.
For fatty acid extraction, after thawing out the plates, 40 μL of 1N KOH (containing 5 μM of internal standard 7,7,8,8-D4 palmitate) was added to each well and cell plates were incubated at 37° C. for 30 minutes. […] Acetonitrile (100 μL) was then added to extract fatty acids, followed by centrifugation at 3000 rpm for 10 minutes. 75 μL of extract was then transferred to a new glass vial in a 96-well cluster plate. 5 μL was injected for LC/MS analysis for detection of ^13C-palmitic acid and ^13C-palmitoleic acid. Formation of product ^13C-palmitoleic acid was determined as an index of SCD1 activity.
LC/MS analysis was performed as following. An Agilent 1100 Liquid Chromatographic System (Palo Alto, Calif.) consisting of a binary pump, a degasser and an autosampler was used. Separation of free fatty acids was performed on a Zorbax SB—C8 column (2.1×50 mm, particle size=3.5 μm). An isocratic elution was carried out with 10 mM triethylamine acetate in water:acetonitrile (3:7) at a flow rate of 0.3 mL/min. The column temperature was set at 30° C. and the sample injection volume was 5 μL. The LC run cycle was 4 min, A Micromass triple-quadrupole Quattro Micro mass […] (Waters, Beverly, Mass.) was interfaced with the LC system through a Z-spray electrospray ion source and was operated in the negative ion mode. Nitrogen was used as nebulizing gas, desolvation gas and cone curtain gas and argon was chosen as collision gas. The triple quadrupole MS source parameters were set as follows: capillary voltage, 3200V; cone voltage, 25V; extractor 2V, source temperature, 120° C.; desolvation temperature, 300° C.; cone gas flow, 50 L/h; and desolvation gas flow, 700 L/h. […] MassLynx software version 4.0 was used for system control and data processing. The signal of U—^13C-palmitoleic acid was normalized to an internal standard.

SCD1 [2] = biological target: SCD1 (Rattus norvegicus (Rat), UniProt P07308); assay: SCD1 enzymatic assay in rat liver microsomes (RLM); assay type: biochemical; details: for inhibition at 1 µM / % Inh. @ 1 μM: 1 μM test compound
Protocol: Step 1: Preparation of Rat Liver Microsome (RLM)
Sprague Dawley rats from Charles River (200-225 g) underwent 2-cycle of fast-re-feeding (24-hour fast followed by 24-hour feeding with fat-free high carbohydrate diet, Research Diet, D00042802). The livers were removed and homogenized 1:4 (w/v) with pre-chilled, homogenizing buffer (10 mM Tris-HCl, 0.25 M sucrose, 1 mM EDTA, pH 7.4, supplemented with protease inhibitor cocktail). The homogenate was spun at 12,000×g for 15 min at 4° C. The supernatant was then re-centrifuged at 100,000×g for 60 min at 4° C. The pellet was re-suspended in 2 ml pre-chilled […] potassium phosphate buffer, pH 7.2, 10 mM EDTA at a concentration of 20 mg/ml. The resulting rat liver microsome (RLM) preparation was stored at […].
Step 2: SCD1 Enzymatic Assay in RLM:
The SCD1 enzymatic assay was done in a volume of 50 μL using 10 μg of RLM (prepared as described above) in a 96-well polypropylene plate (enzyme reaction buffer contains 0.1 M K-Phosphate Buffer, 10 mM ATP, 6 mM MgCl2, 1 mM CoA, 1 mM β-NADH, 1.6 mM L-glutathione, 20 μM Stearoyl-CoA). Stearoyl-[9,10-^3H]—CoA (ARC-0390, 1 mCi/mL, 60 Ci/mmol,) was added at a final concentration of 2 μCi/mL. Test compound was then added to the reaction mixture at the selected concentration. After incubation at room temperature for 2 hours, 5 μL 1 N HCl was added to stop the reaction, followed by addition of 25 μL of 10% charcoal. The reaction mixture was then transferred to 96-well Multiscreen plate (Millipore, Cat# MSFCN6B50). [^3H2O] was collected into Opti-plate (PE, Cat #6005290) by centrifuge, at 1,000 rpm for 2 minutes. 150 μL Microscint 40 (PE, cat #6013641) was then added to each well and counted on Topcount for [^3H] counts per minute (cpm). The measured cpm values were fitted with Sigmoidal dose-response curve fit with Graphpad Prism.

Chain of SCD1 (Homo sapiens (Human), UniProt O00767) (O00767 whole entry): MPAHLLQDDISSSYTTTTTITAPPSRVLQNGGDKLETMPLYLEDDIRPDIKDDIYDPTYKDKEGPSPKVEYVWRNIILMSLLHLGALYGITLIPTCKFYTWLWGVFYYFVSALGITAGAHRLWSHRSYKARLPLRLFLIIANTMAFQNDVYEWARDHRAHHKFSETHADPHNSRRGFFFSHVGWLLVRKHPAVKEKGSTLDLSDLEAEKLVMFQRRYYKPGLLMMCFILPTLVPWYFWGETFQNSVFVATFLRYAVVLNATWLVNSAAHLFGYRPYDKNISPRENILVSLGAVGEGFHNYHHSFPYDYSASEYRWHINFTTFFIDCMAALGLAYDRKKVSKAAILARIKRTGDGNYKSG
Chain of SCD1 (Rattus norvegicus (Rat), UniProt P07308) (P07308 whole entry): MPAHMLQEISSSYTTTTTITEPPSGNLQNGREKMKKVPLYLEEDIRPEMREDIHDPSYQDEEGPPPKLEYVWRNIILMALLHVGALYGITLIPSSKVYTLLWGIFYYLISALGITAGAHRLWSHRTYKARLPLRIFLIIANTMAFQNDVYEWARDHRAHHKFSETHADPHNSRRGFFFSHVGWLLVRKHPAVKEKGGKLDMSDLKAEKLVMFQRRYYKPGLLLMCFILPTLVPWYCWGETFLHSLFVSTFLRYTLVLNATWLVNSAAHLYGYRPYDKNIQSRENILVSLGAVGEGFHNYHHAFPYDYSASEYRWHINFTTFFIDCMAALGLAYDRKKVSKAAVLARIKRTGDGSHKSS

Row | Compound | IC50 (SCD1 [1]) | IC50 (SCD1 [2]) | inhibition at 1 µM (SCD1 [2]) | % Inh. @ 1 μM (SCD1 [2])
1 | Cc1cnc(NC(=O)N2CCC(c3noc4ccc(F)cc34)CC2)s1 [Compound 14, 4-(5-fluorobenzo[d]isoxazol-3-yl)-N-(5-methylthiazol-2-yl)piperidine-1-carboxamide] | 169 nM | 303 nM | 86% | 
2 | NC(=O)c1cnc(NC(=O)N2CCC(N3CCc4ccc(F)cc43)CC2)s1 [Compound 15, 2-(4-(6-fluoroindolin-1-yl)piperidine-1-carboxamido)thiazole-5-carboxamide] | 49 nM | 22 nM | 101% | 
3 | NC(=O)c1cccc(NC(=O)N2CCC(N3CCc4ccc(F)cc43)CC2)c1 [Compound 16, N-(3-carbamoylphenyl)-4-(6-fluoroindolin-1-yl)piperidine-1-carboxamide] | 93 nM | 20 nM | 96% | 
4 | NC(=O)c1cccc(NC(=O)N2CCC(c3noc4ccc(F)cc34)CC2)c1 [Compound 17, N-(3-carbamoylphenyl)-4-(5-fluorobenzo[d]isoxazol-3-yl)piperidine-1-carboxamide] | 274 nM | 208 nM | 84% | 
5 | COC(=O)c1cnc(NC(=O)N2CCC(N3CCc4ccc(F)cc43)CC2)s1 [Compound 18, methyl 2-(4-(6-fluoroindolin-1-yl)piperidine-1-carboxamido)thiazole-5-carboxylate] | 221 nM | 363 nM | 62% | 
6 | CNC(=O)c1cnc(NC(=O)N2CCC(N3CCc4ccc(F)cc43)CC2)s1 [Compound 19, 2-(4-(6-fluoroindolin-1-yl)piperidine-1-carboxamido)-N-methylthiazole-5-carboxamide] | 206 nM | 93 nM | 94% | 
7 | Cc1csc(NC(=O)N2CCC(N3CCc4ccc(F)cc43)CC2)n1 [Compound 20, 4-(6-fluoroindolin-1-yl)-N-(4-methylthiazol-2-yl)piperidine-1-carboxamide] | 21 nM | 26 nM | 98% | 
8 | Cc1cnc(NC(=O)N2CCC(N3CCc4ccc(F)cc43)CC2)s1 [Compound 21, 4-(6-fluoroindolin-1-yl)-N-(5-methylthiazol-2-yl)piperidine-1-carboxamide] | 108 nM | 82 nM | 83% | 
9 | O=C(Nc1ncc(CO)s1)N1CCC(N2CCc3ccc(F)cc32)CC1 [Compound 24, 4-(6-fluoroindolin-1-yl)-N-(5-(hydroxymethyl)thiazol-2-yl)piperidine-1-carboxamide] | 154 nM | 88 nM | 97% | 
10 | O=C(Nc1nc(CO)cs1)N1CCC(N2CCc3ccc(F)cc32)CC1 [Compound 25, 4-(6-fluoroindolin-1-yl)-N-(4-(hydroxymethyl)thiazol-2-yl)piperidine-1-carboxamide] | 42 nM | 52 nM | 94% | 
11 | CCOC(=O)Cc1csc(NC(=O)N2CCC(N3CCc4ccc(F)cc43)CC2)n1 [Compound 27, ethyl 2-(2-(4-(6-fluoroindolin-1-yl)piperidine-1-carboxamido)thiazol-4-yl)acetate] | > 1000 nM | 290 nM | 80% | 
12 | O=C(Nc1nc(CCO)cs1)N1CCC(N2CCc3ccc(F)cc32)CC1 [Compound 29, 4-(6-fluoroindolin-1-yl)-N-(4-(2-hydroxyethyl)thiazol-2-yl)piperidine-1-carboxamide] | 18 nM | 20 nM | 94% | 
13 | O=C(Nc1nc2c(s1)CC(O)CC2)N1CCC(N2CCc3ccc(F)cc32)CC1 (centres unmarked) [Compound 33, 4-(6-fluoroindolin-1-yl)-N-(6-hydroxy-4,5,6,7-tetrahydrobenzo[d]thiazol-2-yl)piperidine-1-carboxamide] | < 1 nM and 1 nM | 7 nM and 20 nM | 97% | 99%
14 | O=C(CO)N1CCc2nc(NC(=O)N3CCC(N4CCc5ccc(F)cc54)CC3)sc2C1 [Compound 35, 4-(6-fluoroindolin-1-yl)-N-(5-(2-hydroxyacetyl)-4,5,6,7-tetrahydrothiazolo[5,4-c]pyridin-2-yl)piperidine-1-carboxamide] | 113 nM | 96 nM | 92% | 
15 | O=C(Nc1nc2c(s1)CNCC2)N1CCC(N2CCc3ccc(F)cc32)CC1 [Compound 36, 4-(6-fluoroindolin-1-yl)-N-(4,5,6,7-tetrahydrothiazolo[5,4-c]pyridin-2-yl)piperidine-1-carboxamide] | 16 nM | 29 nM | 91% | 
16 | O=C1NCCn2nc(NC(=O)N3CCC(N4CCc5ccc(F)cc54)CC3)cc21 [Compound 37, 4-(6-fluoroindolin-1-yl)-N-(4-oxo-4,5,6,7-tetrahydropyrazolo[1,5-a]pyrazin-2-yl)piperidine-1-carboxamide] | 30 nM | 14 nM and 22 nM | 95% | 89%
17 | O=C(Nc1nc2c(s1)CN(CCO)CC2)N1CCC(N2CCc3ccc(F)cc32)CC1 [Compound 38, 4-(6-fluoroindolin-1-yl)-N-(5-(2-hydroxyethyl)-4,5,6,7-tetrahydrothiazolo[5,4-c]pyridin-2-yl)piperidine-1-carboxamide] | 440 nM | 770 nM |  | 
18 | NC(=O)c1cccc(NC(=O)N2CCC(n3ncc4c(F)cccc43)CC2)c1 [Compound 39, N-(3-carbamoylphenyl)-4-(4-fluoro-1H-indazol-1-yl)piperidine-1-carboxamide] | 288 nM and 149 nM | 88 nM and 59 nM | 86% | 86, 86%
19 | O=C(Nc1cccc(CO)c1)N1CCC(N2CCc3ccc(F)cc32)CC1 [Compound 43, 4-(6-fluoroindolin-1-yl)-N-(3-(hydroxymethyl)phenyl)piperidine-1-carboxamide] | 161 nM | 322 nM | 61% | 
20 | O=C1OCc2ccc(NC(=O)N3CCC(N4CCc5ccc(F)cc54)CC3)cc21 [Compound 47, 4-(6-fluoroindolin-1-yl)-N-(3-oxo-1,3-dihydroisobenzofuran-5-yl)piperidine-1-carboxamide] | 27 nM | 17 nM | 83% | 
21 | O=C(Nc1ncc(CCO)s1)N1CCC(N2CCc3ccc(F)cc32)CC1 [Compound 50, 4-(6-fluoroindolin-1-yl)-N-(5-(2-hydroxyethyl)thiazol-2-yl)piperidine-1-carboxamide] | 6 nM | 8 nM | 102% | 
22 | O=C(Nc1nc(CCO)cs1)N1CCC(c2noc3ccc(F)cc23)CC1 [Compound 54, 4-(5-fluorobenzo[d]isoxazol-3-yl)-N-(4-(2-hydroxyethyl)thiazol-2-yl)piperidine-1-carboxamide] | 38 nM | 29 nM | 95% | 
23 | O=C(Nc1ncc(CCO)s1)N1CCC(c2noc3ccc(F)cc23)CC1 [Compound 55, 4-(5-fluorobenzo[d]isoxazol-3-yl)-N-(5-(2-hydroxyethyl)thiazol-2-yl)piperidine-1-carboxamide] | 30 nM | 11 nM | 92% | 
